The record followed here is ChEMBL document CHEMBL4257466, “The use of matched molecular series networks for cross target structure activity relationship translation and potency prediction” (Medchemcomm, 2017).

As usually defined, the pIC50 is the negative decadic logarithm of the IC50, by convention in mol/L. Read a low pIC50 as a large IC50.

pIC50: −log10 of the molar value.

The target of this assay is RNA-directed RNA polymerase (Hepacivirus hominis, UniProt O39930). Put plainly: Inhibition of HCV RNA polymerase.
Sequence of RNA-directed RNA polymerase (O39930 whole entry): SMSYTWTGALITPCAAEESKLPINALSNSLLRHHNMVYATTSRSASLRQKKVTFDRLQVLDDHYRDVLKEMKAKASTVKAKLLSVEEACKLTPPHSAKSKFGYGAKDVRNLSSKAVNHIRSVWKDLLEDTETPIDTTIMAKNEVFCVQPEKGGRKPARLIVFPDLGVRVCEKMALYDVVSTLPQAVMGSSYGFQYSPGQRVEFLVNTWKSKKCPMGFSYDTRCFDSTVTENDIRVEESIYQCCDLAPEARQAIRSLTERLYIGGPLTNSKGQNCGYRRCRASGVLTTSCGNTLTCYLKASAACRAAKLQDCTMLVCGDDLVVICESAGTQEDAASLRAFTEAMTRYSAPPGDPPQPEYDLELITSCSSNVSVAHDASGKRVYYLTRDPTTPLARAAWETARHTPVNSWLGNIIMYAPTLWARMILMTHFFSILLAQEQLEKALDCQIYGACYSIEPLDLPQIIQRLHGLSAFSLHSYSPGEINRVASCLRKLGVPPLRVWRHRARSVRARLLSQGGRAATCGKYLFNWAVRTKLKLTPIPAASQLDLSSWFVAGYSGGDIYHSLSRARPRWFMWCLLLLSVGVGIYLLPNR
`CNC(=O)c1c(-c2ccc(F)cc2)oc2nc(CNS(C)(=O)=O)c(C3CC3)cc12`: the pIC50 was 6.30.
In turn, `CNC(=O)c1c(-c2ccc(F)cc2)oc2nc(CNC(=O)COC)c(C3CC3)cc12` gave a pIC50 of 5.50.
In turn, `CNC(=O)c1c(-c2ccc(F)cc2)oc2nc(CNC(=O)C3CCOC3)c(C3CC3)cc12` (stereo not given) showed a pIC50 of 5.60.
On to `CNC(=O)c1c(-c2ccc(F)cc2)oc2nc(CN)c(C3CC3)cc12`, for which the pIC50 is 5.20.
Turning to `CNC(=O)c1c(-c2ccc(F)cc2)oc2nc(CNC(C)=O)c(C3CC3)cc12`, the pIC50 was 6.20.
